This is an account of results in patent EP2958918B1, “DIHYDROPTERIDINONES II” (Boehringer Ingelheim International GmbH, priority 2013, dated 2014).

One assay deals with Aβ42. Nature of the assay: Aβ42 cellular assay: inhibition of Aβ42 production in H4 neuroglioma cells stably expressing human APP695, electrochemiluminescence (Meso Scale Discovery) on supernatant. It counts as cell-based. To be noted: 22 hours incubation, tested range 30 µM to 0.1 nM. How it is done: (§1) Cells were plated out to near confluency. The compounds to be tested were received as 10 mM stocks in 100% DMSO. A dilution series was initially generated in 100% DMSO and then diluted 200-fold in cell culture media such that the tested concentration range was 30 µM to 0.1 nM and the final DMSO concentration was 0.5%. The diluted compounds were incubated with the cells for 22 hours in an incubator at 37°C and 5% CO2. Aβ42 as well as Aβ total levels were then measured post-incubation from the supernatant of the cells. Aβ42 levels were determined using a specific electrochemiluminescence assay provided by Meso Scale Discovery (Catalog # L21CA-1) according to the manufacturer's protocol. Aβ total levels were likewise determined using a specific electrochemiluminescence assay provided by Meso Scale Discovery (Catalog # L21ZA-1) according to the manufacturer's protocol.
(§2) In order to absolutely define the described compounds as modulators of y-Secretase as opposed to simply inhibitors of γ-Secretase, measurements of not only Aβ42 but also Aβ total are performed.

In the next assay the test system is Aβ total. Nature of the assay: Aβ total cellular assay: inhibition of Aβ total production in H4 neuroglioma cells stably expressing human APP695, electrochemiluminescence (Meso Scale Discovery) on supernatant; used for the ratio Aβ total IC50 / Aβ42 IC50. Type of assay: cell-based. To be noted: higher ratio = more specific inhibition of Aβ42. The method, then:
as §1, §2

Consider `COc1cc(Nc2ncc3c(n2)NC2(CCOC2)C(=O)N3CC2CCOCC2)ccc1-n1cnc(C)c1` (stereo not shown) [Example 22], for which, in the assay with Aβ42, half-maximal inhibition (IC50) was put at 3300 nM. Moreover, the “Ratio Aß(total)/Aß42” value with Aβ total is recorded as more than 9.

For the molecule `CCc1nc(Nc2ccc(-n3cnc(C)c3)c(C#N)c2)nc2c1N(C)C(=O)C1(CCOC1)N2C` (stereo not shown) [Example 35], 76 nM corresponded to half-maximal inhibition in the assay on Aβ42 (IC50). For the same molecule, the “Ratio Aß(total)/Aß42” value in the assay with Aβ total amounted to 180.

In turn, `COc1cc(Nc2ncc3c(n2)N(C)C2(CCOCC2)C(=O)N3c2ccc(F)cc2)ccc1-n1cnc(C)c1` [Example 37f] came in with an IC50 with Aβ42 of 145 nM. The “Ratio Aß(total)/Aß42” value with Aβ total stood at 55.

For `COc1cc(Nc2ncc3c(n2)N(C)C2(CCOC2)C(=O)N3CC2CCOCC2)ccc1-n1cnc(C)c1` (stereo not shown) [Example 26], in the assay with Aβ42, the concentration for half-maximal inhibition (IC50) is 350 nM. Moreover, the “Ratio Aß(total)/Aß42” value in the assay on Aβ total was found to be 46.

Consider `COc1cc(Nc2ncc3c(n2)N(C)C2(CCOCC2)C(=O)N3)ccc1-n1cnc(C)c1` [Example 9], for which half-maximal inhibition with Aβ42 (IC50) required 300 nM. For the same molecule, in the assay on Aβ total, the “Ratio Aß(total)/Aß42” value is recorded as more than 101.

`COc1cc(Nc2nc(CC(F)(F)F)c3c(n2)N(C)C2(CC2)C(=O)N3C)ccc1-n1cnc(C)c1` [Example 55]: inhibition in the assay with Aβ42 was half-maximal at 76 nM (IC50). For the same molecule, the “Ratio Aß(total)/Aß42” value in the assay with Aβ total is reported as 103.

Consider `COc1cc(Nc2ncc3c(n2)N(C)C2(CCOC2)C(=O)N3C(C)C)ccc1-n1cnc(C)c1` (stereo not shown) [Example 23], for which, in the assay with Aβ42, the IC50 was 39 nM. The “Ratio Aß(total)/Aß42” value in the assay on Aβ total amounted to 599.

In the assay on Aβ42, `COc1cc(Nc2ncc3c(n2)N(C)C2(CCCCOC2)C(=O)N3C)ccc1-n1cnc(C)c1` (stereo not shown) [Example 39] returned an IC50 of 78 nM. The “Ratio Aß(total)/Aß42” value with Aβ total is recorded as 91.

Regarding `COc1cc(Nc2ncc3c(n2)N(C)C2(CCOC2)C(=O)N3C(C)c2ccccn2)ccc1-n1cnc(C)c1` (stereo not shown) [Example 37k], half-maximal inhibition in the assay with Aβ42 (IC50) required 120 nM. Further, the “Ratio Aß(total)/Aß42” value with Aβ total worked out at 88.

Turning to `COc1cc(Nc2ncc3c(n2)N(C)C2(CCOCC2)C(=O)N3c2cc(F)cc(F)c2)ccc1-n1cnc(C)c1` [Example 37c], inhibition in the assay on Aβ42 was half-maximal at 116 nM (IC50). The “Ratio Aß(total)/Aß42” value with Aβ total is reported as 75.

In the assay with Aβ42, `COCCN1C(=O)C2(CCOC2)N(C)c2nc(Nc3ccc(-c4ccnc(C)c4)cc3)ncc21` (stereo not shown) [Example 14] came in with an IC50 of 1400 nM. For the same molecule, in the assay with Aβ total, the “Ratio Aß(total)/Aß42” value was more than 27.

For `CCc1nc(Nc2ccc(-n3cnc(C)c3)c(OC)c2)nc2c1N(C)C(=O)C1(CCOC1)N2C` (stereo not shown) [Example 34], the midpoint of inhibition with Aβ42, the IC50, lay at 73 nM. Besides, in the assay with Aβ total, the “Ratio Aß(total)/Aß42” value amounted to 115.

`COCCN1c2nc(Nc3ccc(-n4cnc(C)c4)c(OC)c3)nc(CC(C)C)c2N(C)C(=O)C12CCOC2` (stereo not shown) [Example 30] returned an IC50 with Aβ42 of 100 nM. For the same molecule, in the assay on Aβ total, the “Ratio Aß(total)/Aß42” value amounted to 96.

`COc1cc(Nc2ncc3c(n2)NC2(CCOC2)C(=O)N3C)ccc1-n1cnc(C)c1` (stereo not shown) [Example 20] returned an IC50 with Aβ42 of 790 nM. In addition, in the assay on Aβ total, the “Ratio Aß(total)/Aß42” value is recorded as more than 90.

Regarding `COCCN1c2nc(Nc3ccc(-c4cnc(C)o4)c(OC)c3)nc(CC(C)C)c2N(C)C(=O)C12CCOC2` (stereo not shown) [Example 31], the IC50 in the assay on Aβ42 is 180 nM. Moreover, the “Ratio Aß(total)/Aß42” value in the assay with Aβ total is on record as 47.

In the assay with Aβ42, `COc1cc(Nc2ncc3c(n2)N(C)C2(CCOC2)C(=O)N3c2ccc(C(F)(F)F)cn2)ccc1-n1cnc(C)c1` (stereo not shown) [Example 48] showed an IC50 of 389 nM. Also, in the assay on Aβ total, the “Ratio Aß(total)/Aß42” value is 22.

Molecule `COCCN1C(=O)C2(CCOCC2)N(C)c2nc(Nc3ccc(-n4cnc(C)n4)c(OC)c3)ncc21` [Example 13] showed an IC50 with Aβ42 of 2200 nM. In addition, the “Ratio Aß(total)/Aß42” value with Aβ total was more than 13.
